One test concerns the target T1, human recombinant HDAC1 (Homo sapiens, UniProt Q13547).
T1 construct: purchased Enzo Life Science, Inc. BML-SE456
Description: HDAC1 enzyme activity inhibition (HDAC Fluorimetric Drug Discovery Kit). To be noted: read-out: HDAC1. The class given is biochemical. The method in brief: (§1)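 Fluorimetric deacetylase read-out: after 30 min with Developer II following a 60 min, 30° C reaction of recombinant enzyme ([…]) with 10 μM substrate, across five-fold serial compound dilutions.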

The target in another test is T2, human recombinant HDAC6 (Homo sapiens, UniProt Q9UBN7).
T2 construct: purchased Calbiochem Inc. 382180
T2 sequence (Q9UBN7 1-1215): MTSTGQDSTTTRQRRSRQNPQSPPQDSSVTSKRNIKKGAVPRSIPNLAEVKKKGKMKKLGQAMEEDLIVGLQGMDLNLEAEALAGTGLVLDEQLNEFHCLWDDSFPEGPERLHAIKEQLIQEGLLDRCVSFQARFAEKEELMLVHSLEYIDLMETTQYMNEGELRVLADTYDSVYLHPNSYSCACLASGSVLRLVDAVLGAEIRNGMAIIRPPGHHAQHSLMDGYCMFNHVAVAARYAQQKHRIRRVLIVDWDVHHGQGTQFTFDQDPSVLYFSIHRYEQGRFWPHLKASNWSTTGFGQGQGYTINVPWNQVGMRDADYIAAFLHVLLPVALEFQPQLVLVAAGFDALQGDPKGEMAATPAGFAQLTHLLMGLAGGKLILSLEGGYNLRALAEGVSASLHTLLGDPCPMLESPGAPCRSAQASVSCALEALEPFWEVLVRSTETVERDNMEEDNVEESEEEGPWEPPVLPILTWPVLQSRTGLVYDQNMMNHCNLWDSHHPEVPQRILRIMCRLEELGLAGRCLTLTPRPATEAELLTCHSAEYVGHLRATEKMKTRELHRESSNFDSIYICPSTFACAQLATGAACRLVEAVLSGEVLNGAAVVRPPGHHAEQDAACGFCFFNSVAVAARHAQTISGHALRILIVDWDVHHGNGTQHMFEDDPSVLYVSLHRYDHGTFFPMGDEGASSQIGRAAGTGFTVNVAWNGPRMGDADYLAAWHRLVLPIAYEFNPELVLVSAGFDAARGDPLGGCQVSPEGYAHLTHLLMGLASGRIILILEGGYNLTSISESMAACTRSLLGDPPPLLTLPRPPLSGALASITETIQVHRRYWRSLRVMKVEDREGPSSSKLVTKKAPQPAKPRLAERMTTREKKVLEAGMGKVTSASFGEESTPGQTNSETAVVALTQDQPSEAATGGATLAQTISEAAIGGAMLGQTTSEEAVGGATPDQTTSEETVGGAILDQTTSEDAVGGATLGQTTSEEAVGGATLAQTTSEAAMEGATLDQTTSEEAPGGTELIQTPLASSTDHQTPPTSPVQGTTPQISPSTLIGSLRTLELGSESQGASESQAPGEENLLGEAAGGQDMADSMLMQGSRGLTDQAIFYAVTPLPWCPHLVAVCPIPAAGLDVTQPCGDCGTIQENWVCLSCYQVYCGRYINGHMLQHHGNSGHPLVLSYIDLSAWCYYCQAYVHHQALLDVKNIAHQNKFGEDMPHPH
Description: HDAC6 enzyme activity inhibition (HDAC Fluorimetric Drug Discovery Kit). The class given is biochemical. An outline of the steps:
as §1

[1] abbreviates: human recombinant HDAC1, IC50 calculated with GraphPad Prism.
The mark [2] stands for this setting: human recombinant HDAC6, IC50 calculated with GraphPad Prism.
Where [3] appears, read: human recombinant HDAC1, Fluor de Lys substrate, 30° C. 60 minutes.
The mark [4] stands for this setting: human recombinant HDAC6, same protocol as HDAC1.

Molecules are shown by their SMILES. Read-outs that look alike come from different tables or passages of the source.

T1 sequence (Q13547 whole entry): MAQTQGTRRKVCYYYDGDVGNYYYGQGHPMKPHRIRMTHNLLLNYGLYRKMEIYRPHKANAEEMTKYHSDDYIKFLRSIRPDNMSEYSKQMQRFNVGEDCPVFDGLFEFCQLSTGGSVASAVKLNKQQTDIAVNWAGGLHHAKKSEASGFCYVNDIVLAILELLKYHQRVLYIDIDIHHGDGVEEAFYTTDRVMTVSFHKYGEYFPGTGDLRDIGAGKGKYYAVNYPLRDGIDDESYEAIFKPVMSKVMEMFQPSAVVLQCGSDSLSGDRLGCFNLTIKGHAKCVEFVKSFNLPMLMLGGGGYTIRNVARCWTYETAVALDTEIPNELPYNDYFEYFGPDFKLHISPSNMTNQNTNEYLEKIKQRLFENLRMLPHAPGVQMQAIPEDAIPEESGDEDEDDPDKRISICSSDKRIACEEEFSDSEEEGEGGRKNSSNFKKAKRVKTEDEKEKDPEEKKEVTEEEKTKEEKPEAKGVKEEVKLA

In the case of `Fc1cc(-c2nnc(C(F)F)o2)ccc1Cn1cc(-c2ccc(CNC3COC3)cc2)nn1` [Compound 4469, N-(4-(1-(4-(5-(difluoromethyl)-1,3,4-oxadiazol-2-yl)-2-fluorobenzyl)-1H-1,2,3-triazol-4-yl)benzyl)oxetan-3-amine], the IC50 was over 50 µM on human recombinant HDAC1 (setting [1]) and 0.059 µM on human recombinant HDAC6 (setting [2]). In addition, on human recombinant HDAC6 (HDAC1 IC50 / HDAC6 IC50), the “HDAC6 selectivity (fold)” value stood at 847 fold.
Regarding `FC(F)c1nnc(-c2ccc(Cn3cc(-c4cccc5c4CN(C4COC4)C5)nn3)cc2)o1` [Compound 4533, 2-(difluoromethyl)-5-(4-((4-(2-(oxetan-3-yl)isoindolin-4-yl)-1H-1,2,3-triazol-1-yl)methyl)phenyl)-1,3,4-oxadiazole], the IC50 on human recombinant HDAC1 (setting [3]) was over 50 µM; on human recombinant HDAC6 (setting [4]), 0.157 µM. The “HDAC6 selectivity (fold)” value at human recombinant HDAC6 (HDAC6 over HDAC1) turned out to be 318 fold.
For `CC(C)N1CCN(c2cccc(-c3cn(Cc4ccc(-c5nnc(C(F)F)o5)cc4F)nn3)c2F)CC1` [Compound 4578], the values for the IC50 at human recombinant HDAC1 (setting [3]) and on human recombinant HDAC6 (setting [4]) were over 50 µM and 0.026 µM, respectively. The “HDAC6 selectivity (fold)” value at human recombinant HDAC6 (HDAC6 over HDAC1) was 1923 fold.
`Fc1cc(-c2nnc(C(F)F)o2)ccc1Cn1cc(-c2cccc(CN3CC(F)C3)c2)nn1` [Compound 4403, 2-(difluoromethyl)-5-(3-fluoro-4-((4-(3-((3-fluoroazetidin-1-yl)methyl)phenyl)-1H-1,2,3-triazol-1-yl)methyl)phenyl)-1,3,4-oxadiazole]: the IC50 was over 50 µM on human recombinant HDAC1 (setting [1]) and 0.0412 µM on human recombinant HDAC6 (setting [2]). The “HDAC6 selectivity (fold)” value on human recombinant HDAC6 (HDAC1 IC50 / HDAC6 IC50) turned out to be 1213 fold.
For the compound `CN1CCN(Cc2ccc(-c3cn(Cc4ccc(-c5nnc(C(F)F)o5)cc4F)nn3)cc2)CC1` [Compound 4473, 2-(difluoromethyl)-5-(3-fluoro-4-((4-(4-((4-methylpiperazin-1-yl)methyl)phenyl)-1H-1,2,3-triazol-1-yl)methyl)phenyl)-1,3,4-oxadiazole], the figures for the IC50 at human recombinant HDAC1 (setting [1]) and on human recombinant HDAC6 (setting [2]) were over 50 µM and 0.0399 µM, respectively. Also, the “HDAC6 selectivity (fold)” value at human recombinant HDAC6 (HDAC1 IC50 / HDAC6 IC50) was 1253 fold.
For `CC(C)(C)C(=O)N1CCC(c2cn(Cc3ccc(-c4nnc(C(F)F)o4)cn3)nn2)CC1` [Compound 3893, 1-(4-(1-((5-(5-(difluoromethyl)-1,3,4-oxadiazol-2-yl)pyridin-2-yl)methyl)-1H-1,2,3-triazol-4-yl)piperidin-1-yl)-2,2-dimethylpropan-1-one], the IC50 at human recombinant HDAC1 (setting [1]) is over 50 µM; on human recombinant HDAC6 (setting [2]), 0.153 µM. The “HDAC6 selectivity (fold)” value at human recombinant HDAC6 (HDAC1 IC50 / HDAC6 IC50) is 326 fold.
As for `CN1CC(NCc2ccc(-c3cn(Cc4ccc(-c5nnc(C(F)F)o5)cc4)nn3)cc2)C1` [Compound 4557, N-(4-(1-(4-(5-(difluoromethyl)-1,3,4-oxadiazol-2-yl)benzyl)-1H-1,2,3-triazol-4-yl)benzyl)-1-methylazetidin-3-amine], the IC50 on human recombinant HDAC1 (setting [3]) is over 50 µM; at human recombinant HDAC6 (setting [4]) it was 0.0624 µM. Besides, the “HDAC6 selectivity (fold)” value on human recombinant HDAC6 (HDAC6 over HDAC1) is 801 fold.
For the compound `Fc1cc(-c2nnc(C(F)F)o2)ccc1Cn1cc(-c2cccc(N3C[C@@H]4C[C@H]3CN4)c2)nn1` [Compound 4316, 2-(4-((4-(3-((1S,4S)-2,5-diazabicyclo[2.2.1]heptan-2-yl)phenyl)-1H-1,2,3-triazol-1-yl)methyl)-3-fluorophenyl)-5-(difluoromethyl)-1,3,4-oxadiazole], the IC50 is over 50 µM on human recombinant HDAC1 (setting [1]) and 0.242 µM on human recombinant HDAC6 (setting [2]). For the same compound, the “HDAC6 selectivity (fold)” value at human recombinant HDAC6 (HDAC1 IC50 / HDAC6 IC50) is given as 206 fold.
Regarding `CN1CCN(c2cccc(-c3cn(Cc4ccc(-c5nnc(C(F)F)o5)cc4)nn3)c2F)CC1` [Compound 4483, 2-(difluoromethyl)-5-(4-((4-(2-fluoro-3-(4-methylpiperazin-1-yl)phenyl)-1H-1,2,3-triazol-1-yl)methyl)phenyl)-1,3,4-oxadiazole], the figures for the IC50 on human recombinant HDAC1 (setting [1]) and on human recombinant HDAC6 (setting [2]) were over 50 µM and 0.0341 µM, respectively. Also, the “HDAC6 selectivity (fold)” value at human recombinant HDAC6 (HDAC1 IC50 / HDAC6 IC50) was determined as 1466 fold.
Regarding `Cn1c(Cc2ccc(-c3nnc(C(F)F)o3)cc2)nnc1-c1ccccc1` [Compound 3981, 2-(difluoromethyl)-5-(4-((4-methyl-5-phenyl-4H-1,2,4-triazol-3-yl)methyl)phenyl)-1,3,4-oxadiazole], the IC50 at human recombinant HDAC1 (setting [1]) is over 50 µM; on human recombinant HDAC6 (setting [2]), 1.2 µM. In addition, the “HDAC6 selectivity (fold)” value at human recombinant HDAC6 (HDAC1 IC50 / HDAC6 IC50) is 41 fold.
In the case of `CC(C)(F)C(=O)N1CCC(c2cn(Cc3ccc(-c4nnc(C(F)F)o4)cn3)nn2)CC1` [Compound 3894], the IC50 on human recombinant HDAC1 (setting [1]) is over 50 µM; at human recombinant HDAC6 (setting [2]), 0.1 µM. For the same compound, the “HDAC6 selectivity (fold)” value at human recombinant HDAC6 (HDAC1 IC50 / HDAC6 IC50) is reported as 498 fold.
Regarding `Fc1cc(-c2nnc(C(F)F)o2)ccc1Cn1cc(-c2ccc3c(c2)CN(C2COC2)C3)nn1` [Compound 4519, 2-(difluoromethyl)-5-(3-fluoro-4-((4-(2-(oxetan-3-yl)isoindolin-5-yl)-1H-1,2,3-triazol-1-yl)methyl)phenyl)-1,3,4-oxadiazole], the IC50 was over 50 µM on human recombinant HDAC1 (setting [3]) and 0.0503 µM at human recombinant HDAC6 (setting [4]). In addition, the “HDAC6 selectivity (fold)” value at human recombinant HDAC6 (HDAC6 over HDAC1) came out at 994 fold.
In the case of `CN1CCN(c2cc(-c3cn(Cc4ccc(-c5nnc(C(F)F)o5)cn4)nn3)ccn2)CC1` [Compound 4582, 2-(difluoromethyl)-5-(6-((4-(2-(4-methylpiperazin-1-yl)pyridin-4-yl)-1H-1,2,3-triazol-1-yl)methyl)pyridin-3-yl)-1,3,4-oxadiazole], the results for the IC50 on human recombinant HDAC1 (setting [3]) and on human recombinant HDAC6 (setting [4]) were over 50 µM and 0.0219 µM, respectively. Besides, the “HDAC6 selectivity (fold)” value on human recombinant HDAC6 (HDAC6 over HDAC1) was found to be 2283 fold.
Turning to `OCc1ccc(-c2cn(Cc3ccc(-c4nnc(C(F)F)o4)cc3F)nn2)s1` [Compound 17922], the IC50 on human recombinant HDAC1 (setting [3]) is over 50 µM; on human recombinant HDAC6 (setting [4]), 0.0976 µM. Further, the “HDAC6 selectivity (fold)” value on human recombinant HDAC6 (HDAC6 over HDAC1) amounted to 512 fold.
On to `Fc1cc(-c2nnc(C(F)F)o2)cnc1Cn1cc(-c2cccc(CN3CCCC3)c2Cl)nn1` [Compound 19089], for which the values for the IC50 on human recombinant HDAC1 (setting [3]) and on human recombinant HDAC6 (setting [4]) were over 50 µM and 0.0751 µM, respectively. For the same compound, the “HDAC6 selectivity (fold)” value at human recombinant HDAC6 (HDAC6 over HDAC1) is 665 fold.
Take `FC(F)c1nnc(-c2ccc(Cn3cc(-c4ccc(CN5CCC5)cc4)nn3)nc2)o1` [Compound 4558, 2-(6-((4-(4-(azetidin-1-ylmethyl)phenyl)-1H-1,2,3-triazol-1-yl)methyl)pyridin-3-yl)-5-(difluoromethyl)-1,3,4-oxadiazole]: the IC50 was over 50 µM at human recombinant HDAC1 (setting [3]) and 0.0085 µM on human recombinant HDAC6 (setting [4]). In addition, the “HDAC6 selectivity (fold)” value at human recombinant HDAC6 (HDAC6 over HDAC1) stood at 5882 fold.
For `Fc1cc(-c2nnc(C(F)F)o2)cnc1Cn1cc(-c2ccc(CN3CCCC3)cc2Cl)nn1` [Compound 19100, 2-(6-((4-(2-chloro-4-(pyrrolidin-1-ylmethyl)phenyl)-1H-1,2,3-triazol-1-yl)methyl)-5-fluoropyridin-3-yl)-5-(difluoromethyl)-1,3,4-oxadiazole] the same measures were over 50 µM, 0.0576 µM and 868 fold.
Turning to `CC(C)(N)C(=O)Nc1cccc(-c2cn(Cc3ccc(-c4nnc(C(F)F)o4)cn3)nn2)c1` [Compound 4497, 2-amino-N-(3-(1-((5-(5-(difluoromethyl)-1,3,4-oxadiazol-2-yl)pyridin-2-yl)methyl)-1H-1,2,3-triazol-4-yl)phenyl)-2-methylpropanamide], the IC50 on human recombinant HDAC1 (setting [1]) is over 50 µM; on human recombinant HDAC6 (setting [2]), 0.0133 µM. Moreover, the “HDAC6 selectivity (fold)” value on human recombinant HDAC6 (HDAC1 IC50 / HDAC6 IC50) is listed as 3759 fold.
Taken in the same sequence, the figures for `CCN1CCN(c2cc(-c3cn(Cc4ccc(-c5nnc(C(F)F)o5)cc4)nn3)ccc2F)CC1` [Compound 4420, 2-(difluoromethyl)-5-(4-((4-(3-(4-ethylpiperazin-1-yl)-4-fluorophenyl)-1H-1,2,3-triazol-1-yl)methyl)phenyl)-1,3,4-oxadiazole] were over 50 µM, 0.174 µM and 287 fold.
For `CC(C)N1C[C@@H]2C[C@H]1CN2c1cccc(-c2cn(Cc3ccc(-c4nnc(C(F)F)o4)cc3)nn2)c1` [Compound 4321, 2-(difluoromethyl)-5-(4-((4-(3-((1S, 4S)-5-isopropyl-2,5-diazabicyclo[2.2.1]heptan-2-yl)phenyl)-1H-1,2,3-triazol-1-yl)methyl)phenyl)-1,3,4-oxadiazole], the IC50 on human recombinant HDAC1 (setting [1]) is over 50 µM; at human recombinant HDAC6 (setting [2]) it was 0.111 µM. The “HDAC6 selectivity (fold)” value at human recombinant HDAC6 (HDAC1 IC50 / HDAC6 IC50) stood at 434 fold.

The record behind these values is patent US20230257372A1 (CHONG KUN DANG PHARMACEUTICAL CORP., priority 2020, published 2023).
